This note sets out measurements from article PMC6429117, “Discovery of Galangin as a Potential DPP-4 Inhibitor That Improves Insulin-Stimulated Skeletal Muscle Glucose Uptake: A Combinational Therapy for Diabetes” (International Journal of Molecular Sciences, 2019).

In the experiment the target is T1, dipeptidyl peptidase-4 (DPP-4) (Homo sapiens, UniProt P27487).
T1 construct: gene DPP4; recombinant human DPP-4 enzyme
Nature of the experiment: fluorogenic enzyme inhibition assay (H-Gly-Pro-AMC cleavage, Sigma DPP-4 inhibitor screening kit). The experiment is classed as biochemical.

T1 sequence (P27487 39-766): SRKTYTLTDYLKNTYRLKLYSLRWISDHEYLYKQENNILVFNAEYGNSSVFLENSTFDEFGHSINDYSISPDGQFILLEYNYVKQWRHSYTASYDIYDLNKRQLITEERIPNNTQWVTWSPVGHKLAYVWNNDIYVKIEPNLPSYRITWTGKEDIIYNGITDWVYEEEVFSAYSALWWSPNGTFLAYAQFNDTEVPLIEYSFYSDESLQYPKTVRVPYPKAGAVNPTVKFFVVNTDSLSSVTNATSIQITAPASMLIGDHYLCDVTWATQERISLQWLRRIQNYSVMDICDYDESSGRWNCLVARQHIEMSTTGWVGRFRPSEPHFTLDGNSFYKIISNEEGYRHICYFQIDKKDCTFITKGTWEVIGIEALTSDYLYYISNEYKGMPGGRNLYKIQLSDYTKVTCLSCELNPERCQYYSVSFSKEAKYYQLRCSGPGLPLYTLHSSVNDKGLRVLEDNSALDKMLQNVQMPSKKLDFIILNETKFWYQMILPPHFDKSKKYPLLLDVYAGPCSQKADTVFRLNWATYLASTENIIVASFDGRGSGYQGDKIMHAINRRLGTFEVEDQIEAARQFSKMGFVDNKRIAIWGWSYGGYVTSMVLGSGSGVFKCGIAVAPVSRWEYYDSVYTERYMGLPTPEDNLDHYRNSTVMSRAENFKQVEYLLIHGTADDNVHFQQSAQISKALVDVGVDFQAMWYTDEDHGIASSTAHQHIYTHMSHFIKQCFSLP

A word on the IC50: it is the concentration at which inhibition is half-maximal. Low values mean inhibition by little substance, high ones a need for much substance. As to `O=c1c(O)c(-c2ccccc2)oc2cc(O)cc(O)c12` [Galangin, 3,5,7-trihydroxyflavone], it took 40.1 µM to reach half-maximal inhibition (IC50).
